{"source": "patent US11179412B2", "about": "“Methods of treating conditions involving elevated inflammatory response” (University of Pittsburgh—Of the Commonwealth System of …, priority 2017, dated 2021)", "key": {"[1]": {"tested_on": "STING activation (IFNβ release) in iBMDMs", "test": "IFNβ release ELISA after STING ligand (or LPS) stimulation, iBMDMs", "type": "cell-based, mouse", "how_it_was_run": "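IFNβ released into the medium was quantified by ELISA (mouse or human kit) after iBMDM stimulation with the canonical STING agonist 3′3′-cGAMP or with LPS.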"}, "[2]": {"tested_on": "STING activation (IFNβ release) in RAW264.7 cells", "test": "IFNβ release ELISA, RAW264.7 cells", "type": "cell-based, mouse", "conditions": "STING ligands 10 μg/ml, inhibitor 10 μM, 16 hours", "protocol": "(§1) Macrophages or monocytes were treated with 3′3′-cGAMP (10 μg/ml, Invitrogen) for 16 hours in the absence or presence of one compound (10 μM) from the Target-selective Inhibitory Library (#L3500, Selleck Chemicals). Commercially available enzyme-linked immunosorbent assay (ELISA) kits were used to measure the concentrations of mouse IFNβ (Thermo Fisher Scientific) or human IFNβ (Thermo Fisher Scientific) in culture medium according to the manufacturer's instructions."}, "[3]": {"tested_on": "STING activation (IFNβ release) in THP1 cells", "test": "IFNβ release ELISA, THP1 cells", "type": "cell-based, human", "conditions": "STING ligands 10 μg/ml, inhibitor 10 μM, 16 hours", "protocol": "as §1"}, "IFNβ mRNA in THP1 cells": {"tested_on": "IFNβ mRNA in THP1 cells", "test": "IFNβ mRNA Q-PCR, THP1 cells", "type": "cell-based, human", "conditions": "STING ligands 10 μg/ml, inhibitor 10 μM, 16 hours", "protocol": "(§2) Total RNA was extracted using QIAGEN RNeasy Plus Kit according to the manufacturer's instructions. First-strand cDNA was synthesized from 1 μg of RNA using the iScript cDNA Synthesis kit (#1708890, Bio-Rad). Briefly, 20 μl reactions were prepared by combining 4 μl iScript Select reaction mix, 2 μl gene-specific enhancer solution, 1 μl reverse transcriptase, 1 μl gene-specific assay pool (20×, 2 μM), and 12 μl RNA diluted in RNase-free water. Quantitative real-time PCR was carried out using synthesized cDNA, primers, and SsoFast EvaGreen Supermix (#172-5204, Bio-Rad). The expression of target genes was calculated using the ddCt method relative to the expression of a house-keeping gene, β-actin. Data shown are the relative quantity (RQ), with RQ of the control cells set to one."}, "IFNβ mRNA in pPMs": {"tested_on": "IFNβ mRNA in pPMs", "test": "IFNβ mRNA Q-PCR, pPMs", "type": "cell-based, mouse", "conditions": "STING ligands 10 μg/ml, inhibitor 10 μM, 16 hours", "protocol": "as §2"}, "[4]": {"tested_on": "STING signaling (TBK1, IRF3, p65 phosphorylation) in J774A.1 cells", "test": "Western blot of STING pathway protein phosphorylation, J774A.1", "type": "cell-based, mouse", "conditions": "10 μM", "protocol": "For immunoblotting, cells were lysed in Cell Lysis Buffer (#9803, Cell Signaling Technology) with protease inhibitor cocktail (Promega), phosphatase inhibitor cocktail (Sigma), and 1 mM Na3VO4 (70). Cleared lysates were resolved by SDS-PAGE (#3450124, Bio-Rad) and then transferred onto PVDF membranes (#1704273, Bio-Rad). The membranes were blocked with Tris-buffered saline Tween 20 (TBST) containing 5% skim milk for 1 h at room temperature and then incubated with the indicated primary antibodies (1:1000-1:5000) overnight at 4° C. After being washed with TBST, the membranes were incubated with an HRP-linked anti-mouse IgG secondary antibody (#7076, Cell Signaling Technology) or HRP-linked anti-rabbit IgG secondary antibody (#7074, Cell Signaling Technology) for 1 h at room temperature. The membranes were washed three times in TBST and then visualized and analyzed with a ChemiDoc Touch Imaging System (#1708370, Bio-Rad). The intensities of bands were analyzed with Image Lab software."}}, "note": "Entries after “also recorded” stand apart in the source; their conditions may differ."}
{"smiles": "Cc1cc(Nc2ncc(Cl)c(Nc3ccccc3S(=O)(=O)C(C)C)n2)c(OC(C)C)cc1C1CCNCC1", "note": "[LDK378, 5-chloro-N^2-(2-isopropoxy-5-methyl-4-(piperidin-4-yl)phenyl)-N^4-[2-(propane-2-sulfonyl)-phenyl]-pyrimidine-2,4-diamine]", "values": [{"measurement": "fold increase in IFN-β release", "setting": "[1]", "result": 0.08, "unit": "fold"}, {"measurement": "3′3′-cGAMP-induced IFNβ release", "setting": "[1]; iBMDMs, 3′3′-cGAMP 10 μg/ml, 16 hours, compound 10 μM", "result": "blocked; also recorded: diminished"}, {"measurement": "LPS-induced IFNβ release", "setting": "[1]; iBMDMs, LPS 1 μg/ml, LDK378 10 μM, three hours", "result": "inhibited"}, {"measurement": "IFNβ release induced by STING ligands", "setting": "[1]; iBMDMs, STING ligands 10 μg/ml, inhibitor 10 μM, 16 hours", "result": "inhibited"}, {"measurement": "IFNβ release induced by STING ligands", "setting": "[2]", "result": "inhibited"}, {"measurement": "IFNβ release induced by STING ligands", "setting": "[3]", "result": "inhibited"}, {"measurement": "STING ligand-induced IFNβ mRNA expression", "setting": "IFNβ mRNA in THP1 cells", "result": "attenuation"}, {"measurement": "STING ligand-induced IFNβ mRNA expression", "setting": "IFNβ mRNA in pPMs", "result": "attenuation"}, {"measurement": "3′3′-cGAMP-induced p-TBK1", "setting": "[4]; 3′3′-cGAMP 10 μg/ml, three to 16 hours", "result": "time-dependently reduced"}, {"measurement": "3′3′-cGAMP-, c-di-AMP-, and DMXAA-induced p-IRF3 and p-p65", "setting": "[4]; ligand 10 μg/ml", "result": "inhibited"}, {"measurement": "c-di-AMP- or DMXAA-induced p-TBK1", "setting": "[4]; ligand 10 μg/ml, 16 hours", "result": "inhibited"}]}
